In ChEMBL document CHEMBL3632605, “Structure-guided discovery of 2-aryl/pyridin-2-yl-1H-indole derivatives as potent and selective hepsin inhibitors” (Bioorg Med Chem Lett, 2015):
Values after ≈ are worked out from the molar mass of the structure shown.

Tests used:
[1] = molecular target: Serine protease hepsin (Homo sapiens, UniProt P05981); experiment: Inhibition of human recombinant hepsin by fluorescence based assay using 65 uM BOC-Gln-Arg-Arg -AMC as substrate
[2] = molecular target: Coagulation factor X (Bos taurus, UniProt P00743); experiment: Inhibition of bovine factor 10a by fluorescence based assay using CH3OCO-D-CHA-Gly-Arg-pNA.AcoH as substrate
[3] = molecular target: Trypsin (Homo sapiens, UniProt P07477+P07478+P35030); experiment: Inhibition of human trypsin by fluorescence based assay using 25 uM Boc-Gln-Ala-Arg-7-amido-4-methyl coumarinhydrobromide as substrate; format: protein assay
[4] = molecular target: T1, Suppressor of tumorigenicity 14 protein (Homo sapiens, UniProt Q9Y5Y6); experiment: Inhibition of human recombinant matriptase by fluorescence based assay using 20 uM Boc-Gln-Ala-Arg-7-amido-4-methyl coumarinhydrobromide as substrate
T1 sequence (Q9Y5Y6 whole entry): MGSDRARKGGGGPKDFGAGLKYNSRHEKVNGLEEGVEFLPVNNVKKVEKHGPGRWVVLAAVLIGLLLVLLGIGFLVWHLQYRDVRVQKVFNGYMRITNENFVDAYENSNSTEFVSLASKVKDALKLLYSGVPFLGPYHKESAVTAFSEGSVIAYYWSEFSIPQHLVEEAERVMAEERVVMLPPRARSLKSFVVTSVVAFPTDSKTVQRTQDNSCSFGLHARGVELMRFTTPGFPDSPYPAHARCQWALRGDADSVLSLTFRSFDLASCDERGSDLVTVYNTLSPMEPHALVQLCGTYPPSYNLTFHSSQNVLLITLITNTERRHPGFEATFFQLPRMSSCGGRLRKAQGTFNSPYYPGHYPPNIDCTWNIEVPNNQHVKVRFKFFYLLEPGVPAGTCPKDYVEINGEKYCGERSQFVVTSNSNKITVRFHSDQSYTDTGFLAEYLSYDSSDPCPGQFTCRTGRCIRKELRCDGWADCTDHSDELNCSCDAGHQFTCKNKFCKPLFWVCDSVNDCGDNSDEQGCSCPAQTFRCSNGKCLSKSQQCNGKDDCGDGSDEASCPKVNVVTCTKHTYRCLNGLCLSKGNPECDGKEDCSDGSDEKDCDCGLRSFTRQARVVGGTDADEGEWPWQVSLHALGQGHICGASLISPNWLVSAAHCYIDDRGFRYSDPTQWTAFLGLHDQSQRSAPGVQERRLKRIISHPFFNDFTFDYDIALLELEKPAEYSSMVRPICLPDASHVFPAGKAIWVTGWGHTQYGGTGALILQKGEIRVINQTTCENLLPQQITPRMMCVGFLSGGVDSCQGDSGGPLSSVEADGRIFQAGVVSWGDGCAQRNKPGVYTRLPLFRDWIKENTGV

[5] = molecular target: Urokinase-type plasminogen activator (Homo sapiens, UniProt P00749); experiment: Inhibition of human uPA by fluorescence based assay using L-PyroGlu-Gly-Arg-pNA.HCl as substrate
[6] = molecular target: Prothrombin (Homo sapiens, UniProt P00734); experiment: Inhibition of human thrombin by fluorescence based assay using 100 uM Boc-Gln-Ala-Arg-7-amido-4-methyl coumarinhydrobromide as substrate
[7] = molecular target: Plasminogen (Homo sapiens) (UniProt P00747); experiment: Inhibition of human plasmin at 5 uM by fluorescence based assay using pyroGlu-Phe-Lys-pNA.HCl as substrate
[8] = Stability in mouse liver microsomes assessed as compound remaining at 1 uM after 20 mins by LC-MS/MS analysis; format: ADME; conditions: read-out: Stability
[9] = Stability in mouse liver microsomes assessed as compound remaining at 1 uM after 40 mins by LC-MS/MS analysis; format: ADME; conditions: read-out: Stability
[10] = Aqueous solubility of compound at pH 7.4 by HPLC-UV/Vis analysis; format: physicochemical; conditions: aqueous medium
[11] = tested on: PC-3; experiment: Antimigratory activity in human PC3 cells by transwell-chamber assay; format: functional, cell-based
[12] = tested on: PC-3; experiment: Antinvasive activity in human PC3 cells by matrigel assay; format: functional, cell-based
[13] = Antimigratory activity in human LNCaP-C42B4 cells by transwell-chamber assay; format: functional, cell-based
[14] = Antinvasive activity in human LNCaP-C42B4 cells by matrigel assay; format: functional, cell-based
[15] = tested on: PC-3; experiment: Cytotoxicity against human PC3 cells at 10 uM after 72 hrs by calcein AM assay; format: cell-based; conditions: pc-3, 72 h
[16] = Cytotoxicity against human LNCaP-C42B4 cells at 10 uM after 72 hrs by calcein AM assay; format: cell-based; conditions: lncap-c42b4, 72 h

Coagulation factor X, sequence (P00743 41-180 limits assumed): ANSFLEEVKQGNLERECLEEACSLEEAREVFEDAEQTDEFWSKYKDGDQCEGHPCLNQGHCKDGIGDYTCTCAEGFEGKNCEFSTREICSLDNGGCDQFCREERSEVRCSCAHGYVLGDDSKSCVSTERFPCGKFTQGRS
Coagulation factor X, sequence (P00743 234-492 limits assumed): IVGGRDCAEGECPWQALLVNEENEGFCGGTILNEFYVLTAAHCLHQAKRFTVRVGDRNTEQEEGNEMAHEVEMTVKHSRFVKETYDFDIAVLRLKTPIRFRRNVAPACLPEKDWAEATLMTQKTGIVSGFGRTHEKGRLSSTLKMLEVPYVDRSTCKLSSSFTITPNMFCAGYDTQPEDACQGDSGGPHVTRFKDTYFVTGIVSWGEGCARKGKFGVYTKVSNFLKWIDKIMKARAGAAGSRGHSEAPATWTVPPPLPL
Plasminogen (Homo sapiens), sequence (P00747 97-580 limits assumed): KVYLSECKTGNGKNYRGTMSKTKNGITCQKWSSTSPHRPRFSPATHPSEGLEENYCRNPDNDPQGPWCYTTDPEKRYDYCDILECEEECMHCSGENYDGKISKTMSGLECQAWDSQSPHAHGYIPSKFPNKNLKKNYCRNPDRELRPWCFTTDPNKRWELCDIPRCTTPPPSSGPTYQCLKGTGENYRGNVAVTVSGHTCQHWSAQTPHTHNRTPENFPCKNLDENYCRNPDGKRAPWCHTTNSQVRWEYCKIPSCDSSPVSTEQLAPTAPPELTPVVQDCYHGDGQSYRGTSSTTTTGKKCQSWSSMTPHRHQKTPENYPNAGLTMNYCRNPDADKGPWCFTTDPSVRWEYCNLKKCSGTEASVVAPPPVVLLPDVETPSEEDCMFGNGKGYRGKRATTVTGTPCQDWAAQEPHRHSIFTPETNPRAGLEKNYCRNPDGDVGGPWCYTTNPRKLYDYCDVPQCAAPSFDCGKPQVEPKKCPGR
Plasminogen (Homo sapiens), sequence (P00747 581-810 limits assumed): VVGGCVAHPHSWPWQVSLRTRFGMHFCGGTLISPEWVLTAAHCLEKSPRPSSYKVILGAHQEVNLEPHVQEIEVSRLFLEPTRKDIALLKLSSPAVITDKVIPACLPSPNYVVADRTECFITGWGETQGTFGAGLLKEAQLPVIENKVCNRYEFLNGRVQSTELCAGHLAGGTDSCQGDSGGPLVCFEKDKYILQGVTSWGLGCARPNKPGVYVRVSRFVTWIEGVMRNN
Serine protease hepsin, sequence (P05981 1-162 limits assumed): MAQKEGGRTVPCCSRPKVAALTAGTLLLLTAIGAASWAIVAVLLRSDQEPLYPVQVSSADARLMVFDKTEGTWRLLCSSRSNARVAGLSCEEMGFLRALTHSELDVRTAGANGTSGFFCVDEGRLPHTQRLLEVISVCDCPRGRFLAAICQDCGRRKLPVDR
Serine protease hepsin, sequence (P05981 163-417 limits assumed): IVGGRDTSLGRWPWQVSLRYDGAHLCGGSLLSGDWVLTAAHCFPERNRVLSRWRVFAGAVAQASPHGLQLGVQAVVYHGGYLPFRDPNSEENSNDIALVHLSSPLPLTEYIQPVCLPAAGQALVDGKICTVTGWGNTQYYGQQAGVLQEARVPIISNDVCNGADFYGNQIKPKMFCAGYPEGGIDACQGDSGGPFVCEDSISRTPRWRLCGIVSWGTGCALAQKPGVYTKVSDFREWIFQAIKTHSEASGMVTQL

| Structure (SMILES) | Ki [1] | Ki [2] | Ki [3] | Ki [4] | Ki [5] | Ki [6] | inhibition [7] | remaining at 20 min, 1 µM [8] | remaining at 40 min, 1 µM [9] | solubility [10] | EC50 [11] | EC50 [12] | EC50 [13] | EC50 [14] | Activity [15] | Activity [16] |
| --- | --- | --- | --- | --- | --- | --- | --- | --- | --- | --- | --- | --- | --- | --- | --- | --- |
| N=C(N)c1ccc2[nH]c(-c3ccccc3O)nc2c1 | 40000 nM | 14000 nM | 23000 nM | – | – | – | – | – | – | – | – | – | – | – | – | – |
| N=C(N)c1ccc2[nH]c(-c3ccccc3O)cc2c1 | 35000 nM | – | 8000 nM | 60000 nM | – | – | – | – | – | – | – | – | – | – | – | – |
| N=C(N)c1ccc2[nH]c(-c3cccc(C4(O)CCCCC4)n3)cc2c1 | 100 nM | 1400 nM | 400 nM | 2100 nM | 1300 nM | 2100 nM | 24% | 86% | 64% | 148 µM (≈ 49.5 µg/mL) | 2600 nM | 3500 nM | 900 nM | 600 nM | 10% | 8% |
| N=C(N)c1ccc2[nH]c(-c3cccc(N4CCCCC4)c3O)cc2c1 | 1400 nM | – | – | 500 nM | – | – | – | 38% | 22% | 126 µM (≈ 42.1 µg/mL) | 4900 nM | – | 4200 nM | – | 22% | 18% |
| N=C(N)c1ccc2[nH]ccc2c1 | 500000 nM | – | – | – | – | – | – | – | – | – | – | – | – | – | – | – |
| N=C(N)c1ccc2[nH]c(-c3cccc(N4CCCCC4)n3)cc2c1 | 600 nM | – | – | 1500 nM | 2300 nM | – | – | 82% | 60% | 135 µM (≈ 43.1 µg/mL) | 5200 nM | – | 2600 nM | – | 10% | 12% |
| N=C(N)c1ccc2[nH]c(-c3cccc(C4(F)CCCCC4)n3)cc2c1 | 400 nM | 700 nM | 500 nM | 800 nM | 2700 nM | 3600 nM | 11% | – | – | – | – | – | – | – | – | – |
| N=C(N)c1ccc2[nH]c(-c3cccc(C4(O)CCCCC4)[n+]3[O-])cc2c1 | 100 nM | 8200 nM | 800 nM | 1100 nM | 7800 nM | 8600 nM | 11% | 100% | 99% | 200 µM (≈ 70.1 µg/mL) | 1800 nM | 2100 nM | 600 nM | 500 nM | 8% | 1% |
| CC(C)c1cccc(-c2cc3cc(C(=N)N)ccc3[nH]2)c1O | 4900 nM | 1000 nM | 800 nM | 4400 nM | – | 1900 nM | – | – | – | – | – | – | – | – | – | – |
| CC(C)c1cc(Cl)cc(-c2cc3cc(C(=N)N)ccc3[nH]2)c1O | 4800 nM | – | – | 4800 nM | – | – | 5% | – | – | – | – | – | – | – | – | – |
